Data from article PMC10278977, “Caenorhabditis elegans NMAD-1 functions as a demethylase for actin” (Journal of Molecular Cell Biology, 2023).

Key:
[1] = biological target: T1, CTD-deleted NMAD-1 (ΔCTD, residues 1–259) (Caenorhabditis elegans, UniProt Q8MNT9); assay: binding affinity measurement, method not given
T1 construct: residues 1-259, C-terminal domain deleted
T1 sequence (Q8MNT9 1-259): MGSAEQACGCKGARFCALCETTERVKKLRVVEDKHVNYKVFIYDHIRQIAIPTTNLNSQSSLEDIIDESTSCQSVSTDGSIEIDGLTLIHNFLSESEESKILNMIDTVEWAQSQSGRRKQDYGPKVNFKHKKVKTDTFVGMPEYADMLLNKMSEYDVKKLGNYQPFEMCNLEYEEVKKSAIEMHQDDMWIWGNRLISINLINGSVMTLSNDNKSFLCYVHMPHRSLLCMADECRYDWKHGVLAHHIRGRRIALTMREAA
From the text: binding affinity measurement, method not told in main text on CTD-deleted NMAD-1 (ΔCTD, residues 1–259) | the CTD-deleted NMAD-1 retained the NOG binding affinity

NMAD-1 (WT, full-length) = biological target: T2, NMAD-1 (WT, full-length) (Caenorhabditis elegans, UniProt Q8MNT9); assay: isothermal titration calorimetry; assay type: binding
T2 construct: recombinant full-length protein
T2 sequence (Q8MNT9 1-291): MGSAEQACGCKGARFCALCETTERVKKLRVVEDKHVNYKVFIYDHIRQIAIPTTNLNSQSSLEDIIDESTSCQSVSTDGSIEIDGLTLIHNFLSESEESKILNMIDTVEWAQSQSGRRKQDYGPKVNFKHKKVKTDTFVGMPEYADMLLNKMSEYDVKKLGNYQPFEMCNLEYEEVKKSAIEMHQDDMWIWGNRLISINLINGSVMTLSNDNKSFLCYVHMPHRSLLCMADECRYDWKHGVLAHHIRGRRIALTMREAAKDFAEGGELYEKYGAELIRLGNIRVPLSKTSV
From the text: isothermal titration calorimetry on NMAD-1 (WT, full-length) | the cofactor analog N-oxalylglycine (NOG) with dissociation constants (KD) of […]

[2] = biological target: T3, NMAD-1_32–291 (NMAD-1 truncation Δ1–31) (Caenorhabditis elegans, UniProt Q8MNT9); assay: binding affinity measurement, method not given
T3 construct: residues 32-291, N-terminal flexible region removed
T3 sequence (Q8MNT9 32-291): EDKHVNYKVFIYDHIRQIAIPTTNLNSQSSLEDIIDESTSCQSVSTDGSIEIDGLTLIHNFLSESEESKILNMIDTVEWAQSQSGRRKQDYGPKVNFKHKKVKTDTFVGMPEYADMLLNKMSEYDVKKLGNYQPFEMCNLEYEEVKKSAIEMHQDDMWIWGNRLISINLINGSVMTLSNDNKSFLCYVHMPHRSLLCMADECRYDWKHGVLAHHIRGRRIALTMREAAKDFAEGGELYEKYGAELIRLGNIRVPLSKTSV
From the text: binding affinity measurement, method not told in main text on NMAD-1_32–291 (NMAD-1 truncation Δ1–31) | NOG as the full-length NMAD-1 (Supplementary Figure S3C)

- Kd [1]: 1.68 ± 0.01 µM
- Kd (NMAD-1 (WT, full-length)): 1.07 ± 0.11 µM
- Kd [2]: 1.25 ± 0.1 µM
Structure (SMILES): O=C(O)CNC(=O)C(=O)O [N-oxalylglycine]
